Tests used:
ALDH2 = biological target: T1, ALDH2 (Homo sapiens, UniProt P05091); assay: chemoproteomic competition assay (MV4-11/SW620 lysate, iA/iC/iQ beads, MS readout); type: binding; conditions: nine-dose competition assay; range stated for ALDH2 and GATD3A together
T1 construct: incubated at increasing concentrations with a mixture of lysates of MV4–11 and SW620 cells; endogenous in cells; host or cells: mixed lysate of MV4-11 and SW620 cells
T1 sequence (P05091 18-517): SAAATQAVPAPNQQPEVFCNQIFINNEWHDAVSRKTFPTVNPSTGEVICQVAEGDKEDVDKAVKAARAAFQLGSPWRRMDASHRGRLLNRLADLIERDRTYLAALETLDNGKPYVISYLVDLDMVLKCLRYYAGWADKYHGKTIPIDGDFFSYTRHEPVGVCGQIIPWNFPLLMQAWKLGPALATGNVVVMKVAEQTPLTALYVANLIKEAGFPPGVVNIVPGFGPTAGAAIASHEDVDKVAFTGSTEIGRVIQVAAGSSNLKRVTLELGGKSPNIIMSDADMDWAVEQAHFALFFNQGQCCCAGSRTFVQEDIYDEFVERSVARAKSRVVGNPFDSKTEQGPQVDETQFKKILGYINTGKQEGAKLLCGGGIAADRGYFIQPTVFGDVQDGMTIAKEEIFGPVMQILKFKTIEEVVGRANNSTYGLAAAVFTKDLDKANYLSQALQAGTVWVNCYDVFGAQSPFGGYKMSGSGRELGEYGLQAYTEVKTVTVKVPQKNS
Experimental: (§1) MBLAC2 is a metalloenzyme predicted to harbor one or two Zn^2+ ions in its active site. […] In this assay, compounds of interest are incubated at increasing concentrations with a mixture of lysates of MV4–11 and SW620 cells. The compound-treated lysates are then mixed with bead-immobilized hydroxamic acid-containing compounds iA, iC, and iQ (immobilized Quisinostat), which pull down compound-binding proteins such as HDACs, MBLAC2, ISOC1/2, ALDH2, and GATD3A (Figure a) that can be identified and quantified by mass spectrometry (MS). Proteins targeted by the library compounds in a preincubation step are prevented from being pulled down by the immobilized probes, leading to a dose-dependent reduction in MS signal. Initially, 12 metal-chelating compounds were profiled at two concentrations (10 μM and 100 μM) (Figure S3).
(§2) Chemoproteomic competition assays
(§3) Sample preparation. […]
(§4) LC-MS/MS. The different sample types were measured with different LC-MS/MS settings. MBLAC2 2-dose competition assays were measured with the Lumos1 setup, MBLAC2 9-dose competition assays were measured with the Lumos2 setup, and kinobeads assays were measured with the Eclipse setup.
(§5) Peptides were analyzed via LC–MS/MS on a Dionex Ultimate3000 nano HPLC coupled to either one of two Orbitrap Fusion Lumos mass spectrometers, or to an Orbitrap Eclipse mass spectrometer, operated via the Thermo Scientific Xcalibur software. […]
(§6) In Lumos settings, up to 12 peptide precursors were isolated in (isolation width of 1.2 Th for Lumos1 and 1.7 for Lumos2, maximum injection time of 75 ms, AGC value of 1e5 for Lumos1 and 2e5 for Lumos2), fragmented by HCD using 30% normalized collision energy (NCE) and analyzed in the Orbitrap at a resolution of 15,000 (Lumos2) or 30,000 (Lumos1). […] Peptides were isolated in the quadrupole with an isolation offset of 1.2 (isolation width of 1.2 Th, maximum injection time of 54 ms, AGC target of 200%) and fragmented by HCD with an NCE of 30% and analyzed in the Orbitrap at a resolution of 30,000. […]

GATD3A = biological target: T2, GATD3A (Homo sapiens, UniProt P0DPI2); assay: as above; type: binding; conditions: nine-dose competition assay; range stated for ALDH2 and GATD3A together
T2 construct: incubated at increasing concentrations with a mixture of lysates of MV4–11 and SW620 cells; endogenous in cells; host or cells: mixed lysate of MV4-11 and SW620 cells
T2 sequence (P0DPI2 42-268): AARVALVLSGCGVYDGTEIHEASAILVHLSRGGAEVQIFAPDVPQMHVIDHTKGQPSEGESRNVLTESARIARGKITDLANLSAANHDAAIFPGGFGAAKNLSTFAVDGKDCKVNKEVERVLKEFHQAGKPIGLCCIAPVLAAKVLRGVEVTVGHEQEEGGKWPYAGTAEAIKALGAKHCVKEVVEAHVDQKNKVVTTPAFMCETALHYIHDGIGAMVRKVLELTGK
Experimental: as §1, §2, §3, §4, §5, §6

SMILES: CC(C)Cc1ccc(C(C)C(=O)NO)cc1 (centres unmarked) [Ibuproxam]
- EC50 (ALDH2): 23 to 30 µM
- EC50 (GATD3A): 23 to 30 µM

From article PMC12186257, “Serendipitous and Systematic Chemoproteomic Discovery of MBLAC2, HINT1, and NME1‑4 Inhibitors from Histone Deacetylase-Targeting Pharmacophores” (ACS Chemical Biology, 2025)
